# Legend:
# [1] = tested on: Rattus norvegicus; test: Antihyperglycemic activity in albino Rattus norvegicus Sprague-Dawley (rat) streptozotocin-induced diabetic model assessed as effect on AUC of blood glucose level at 100 mg/kg, po after 24 hr; format: functional
# [2] = tested on: Rattus norvegicus; test: Antihyperglycemic activity in albino Rattus norvegicus Sprague-Dawley (rat) streptozotocin-induced diabetic model assessed as effect on AUC of blood glucose level at 100 mg/kg, po after 5 hr; format: functional
SMILES,Activity [1] [%],Activity [2] [%]
"COc1c(-c2ccccc2)oc2c3c(ccc2c1=O)OCC3 [2',3'-DIHYDROKARANJIN]",9.8,6.2
"O=c1c(O)c(-c2ccccc2)oc2c3c(ccc12)OCC3 [2',3'-DIHYDROKARANJONOL]",5.3,7
CCN(CC)CC(O)COc1c(-c2ccccc2)oc2c(ccc3occc32)c1=O (stereo not given) [3-(3-DIETHYLAMINO-2-HYDROXY-PROPYL)-KARANJONOL],-37,-4.8
O=C(COc1c(-c2ccccc2)oc2c(ccc3occc32)c1=O)c1ccccc1 [3-O-(2-OXO-2-PHENYL-ETHYL)-KARANJONOL],22.9,15.4
C=CCOc1c(-c2ccccc2)oc2c(ccc3occc32)c1=O [3-O-ALLYLKARANJONOL],-16.6,-33
CC(C)Oc1c(-c2ccccc2)oc2c(ccc3occc32)c1=O [3-O-ISOPROPYLKARANJONOL],-15.4,-26.9
CC(=O)OC[C@H]1O[C@@H](Oc2c(-c3ccccc3)oc3c(ccc4occc43)c2=O)[C@H](OC(C)=O)[C@@H](OC(C)=O)[C@@H]1OC(C)=O [3-OTETRAACETYLGLUCOPYRANOSYLKARANJONOL],0.5,9.7
COc1c(-c2ccccc2)oc2c(ccc3occc32)c1=O [KARANJIN],-42.6,-30.8
O=c1c(O)c(-c2ccccc2)oc2c1ccc1occc12 [KARANJONOL],-39,-37.2
CN(C)C(=N)NC(=N)N [METFORMIN],25,-26.7

# Source: ChEMBL document CHEMBL3044738, “Synthesis of analogues of antihyperglycemic lead karanjin” (2011)
